Experimental data from PubChem BioAssay (NCI).
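Where inhibition never reached the appropriate level, the endpoint shown equals the highest concentration tested. Otherwise, values were interpolated linearly from a five-concentration, 48-hour dose response in 96-well plates. GI50 is the concentration that inhibits growth by half. At the TGI there is no net growth.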

Legend:
Assay in all cases: DTP human tumour cell line panel, 48 h
[1] = test system: 786-0 renal
[2] = test system: A498 renal
[3] = test system: A549 NSCLC
[4] = test system: ACHN renal
[5] = test system: BT-549 breast
[6] = test system: CAKI-1 renal
[7] = test system: CCRF-CEM leukemia
[8] = test system: COLO 205 colon
[9] = test system: DU-145 prostate
[10] = test system: EKVX NSCLC
[11] = test system: HCC-2998 colon
[12] = test system: HCT-116 colon
[13] = test system: HCT-15 colon
[14] = test system: HL-60(TB) leukemia
[15] = test system: HOP-62 NSCLC
[16] = test system: HOP-92 NSCLC
[17] = test system: HS 578T breast
[18] = test system: HT29 colon
[19] = test system: IGROV1 ovarian
[20] = test system: K-562 leukemia
[21] = test system: KM12 colon
[22] = test system: LOX IMVI melanoma
[23] = test system: M14 melanoma
[24] = test system: MALME-3M melanoma
[25] = test system: MCF7 breast
[26] = test system: MDA-MB-231 breast
[27] = test system: MDA-MB-435
[28] = test system: MOLT-4 leukemia
[29] = test system: NCI-H226 lung
[30] = test system: NCI-H23 lung
[31] = test system: NCI-H460 lung
[32] = test system: NCI-H522 lung
[33] = test system: NCI/ADR-RES ovarian
[34] = test system: OVCAR-3 ovarian
[35] = test system: OVCAR-4 ovarian
[36] = test system: OVCAR-5 ovarian
[37] = test system: OVCAR-8 ovarian
[38] = test system: PC-3 prostate
[39] = test system: RPMI-8226 leukemia
[40] = test system: RXF 393 renal
[41] = test system: SF-268 CNS
[42] = test system: SF-295 CNS
[43] = test system: SF-539 CNS
[44] = test system: SK-MEL-2 melanoma
[45] = test system: SK-MEL-28 melanoma
[46] = test system: SK-MEL-5 melanoma
[47] = test system: SK-OV-3 ovarian
[48] = test system: SN12C renal
[49] = test system: SNB-19 CNS
[50] = test system: SNB-75 CNS
[51] = test system: SR leukemia
[52] = test system: SW-620 colon
[53] = test system: T-47D breast
[54] = test system: TK-10 renal
[55] = test system: U251 CNS
[56] = test system: UACC-257 melanoma
[57] = test system: UACC-62 melanoma
[58] = test system: UO-31 renal

For `COc1ccc([C@@H]2[C@@H](O)C(=O)N2c2cc(OC)c(OC)c(OC)c2)cc1`, the GI50 [1] was 91.6 nM, the TGI [1] was greater than 100000 nM and the GI50 [2] was 11300 nM. The TGI [2] was greater than 88700 nM, the GI50 [3] was 92.4 nM and the TGI [3] was greater than 100000 nM. The GI50 [4] was 72.3 nM, the TGI [4] was greater than 100000 nM and the GI50 [5] was 94.1 nM. It also gave a TGI [5] of 2430 nM, a GI50 [6] of 48.6 nM and a TGI [6] greater than 33800 nM. For the same compound, the GI50 [7] was 41.3 nM, the GI50 [8] was 69.6 nM and the TGI [8] was 173 nM. The GI50 [9] was 76.1 nM, the TGI [9] was greater than 100000 nM and the GI50 [10] was 79.9 nM. It also gave a TGI [10] greater than 100000 nM, a GI50 [11] of 98.2 nM and a TGI [11] of 10000 nM. For the same compound, the GI50 [12] was 38.6 nM, the TGI [12] was greater than 100000 nM and the GI50 [13] was 72.7 nM. For the same compound, the TGI [13] was greater than 100000 nM, the GI50 [14] was 30.9 nM and the TGI [14] was 126 nM. The GI50 [15] was 75.8 nM, the TGI [15] was greater than 100000 nM and the GI50 [16] was greater than 44600 nM. It also gave a TGI [16] greater than 100000 nM, a GI50 [17] of 41 nM and a TGI [17] greater than 100000 nM. It also gave a GI50 [18] of 32.9 nM, a TGI [18] of 175 nM and a GI50 [19] of 57.7 nM. The TGI [19] was greater than 100000 nM, the GI50 [20] was 33.9 nM and the TGI [20] was greater than 100000 nM. The GI50 [21] was 41.3 nM, the TGI [21] was greater than 100000 nM and the GI50 [22] was 47.3 nM. For the same compound, the TGI [22] was greater than 100000 nM, the GI50 [23] was 42.3 nM and the TGI [23] was greater than 100000 nM. For the same compound, the GI50 [24] was 105 nM, the TGI [24] was greater than 100000 nM and the GI50 [25] was 35.1 nM. It also gave a TGI [25] greater than 100000 nM, a GI50 [26] of 55.8 nM and a TGI [26] greater than 100000 nM. The GI50 [27] was 28.1 nM, the TGI [27] was 83.7 nM and the GI50 [28] was 101 nM. For the same compound, the TGI [28] was greater than 100000 nM, the GI50 [29] was 525 nM and the TGI [29] was greater than 100000 nM. The GI50 [30] was 63 nM, the TGI [30] was greater than 100000 nM and the GI50 [31] was 59.3 nM. The TGI [31] was greater than 100000 nM, the GI50 [32] was 24.8 nM and the TGI [32] was 76.7 nM. The GI50 [33] was 72.5 nM, the TGI [33] was greater than 100000 nM and the GI50 [34] was 34.5 nM. It also gave a TGI [34] of 327 nM, a GI50 [35] of 5860 nM and a TGI [35] greater than 100000 nM. For the same compound, the GI50 [36] was 61.3 nM, the TGI [36] was greater than 100000 nM and the GI50 [37] was 37.6 nM. It also gave a TGI [37] greater than 100000 nM, a GI50 [38] of 85.6 nM and a TGI [38] greater than 100000 nM. For the same compound, the GI50 [39] was 44.8 nM, the TGI [39] was 5610 nM and the GI50 [40] was 26 nM. For the same compound, the TGI [40] was greater than 100000 nM, the GI50 [41] was 214 nM and the TGI [41] was greater than 100000 nM. The GI50 [42] was 37.8 nM, the TGI [42] was greater than 100000 nM and the GI50 [43] was 30.5 nM. For the same compound, the TGI [43] was greater than 100000 nM, the GI50 [44] was 135 nM and the TGI [44] was greater than 100000 nM. It also gave a TGI [45] greater than 100000 nM, a GI50 [46] of 45.2 nM and a TGI [46] of 232 nM. For the same compound, the GI50 [47] was 147 nM, the TGI [47] was greater than 57100 nM and the GI50 [48] was 124 nM. The TGI [48] was greater than 100000 nM, the GI50 [49] was 120 nM and the TGI [49] was greater than 100000 nM. For the same compound, the GI50 [50] was 46.5 nM, the TGI [50] was greater than 100000 nM and the GI50 [51] was 34.3 nM. For the same compound, the TGI [51] was greater than 100000 nM, the GI50 [52] was 50.4 nM and the TGI [52] was greater than 100000 nM. It also gave a GI50 [53] of 19000 nM, a TGI [53] greater than 100000 nM and a GI50 [54] of 32900 nM. For the same compound, the TGI [54] was greater than 100000 nM, the GI50 [55] was 40.4 nM and the TGI [55] was greater than 100000 nM. For the same compound, the GI50 [56] was 5350 nM, the TGI [56] was greater than 100000 nM and the GI50 [57] was 41.7 nM. It also gave a TGI [57] greater than 100000 nM, a GI50 [58] of 65.9 nM and a TGI [58] greater than 100000 nM.
